Among the data in patent US20090239841A1, “Diaryl Ureas as CB1 Antagonists” (priority 2004, published 2009) are IC50 values, retold here.

The assay has as its target T1, hCB1 (Homo sapiens, UniProt P21554).
T1 construct: made in house; host or cells: Sf9 insect cells (baculovirus), P2 membranes
Kind of assay: Agonist-induced GTP binding (GTPγ35S) assay at CB1, Example 8. Conditions: read-out: IC50. It is filed as biochemical. In short, it runs like this: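 Membranes from Sf9 cells co-expressing hCB1 and heterotrimeric G-protein (10 μg protein) in Tris pH 7.4 buffer with 5 μM GDP. Test compounds (10^−10–10^−5 M) competed against 1 nM CP55,940 with […] GTPγ35S, 60 min at room temperature. Filter-bound radioactivity by scintillation, expressed as percent above basal.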

The mark [1] stands for this setting: IC50 at CB1, determined as described in Example 8.
The mark [2] stands for this setting: Table II, IC50 at CB1, GTP binding with 1 nM CP55,940.
[3] abbreviates: Table I, IC50 at CB1, GTP binding with 1 nM CP55,940.

Like-named read-outs stand apart in the source and are kept apart here. Some results are limits rather than exact numbers.

T1 sequence (P21554 whole entry): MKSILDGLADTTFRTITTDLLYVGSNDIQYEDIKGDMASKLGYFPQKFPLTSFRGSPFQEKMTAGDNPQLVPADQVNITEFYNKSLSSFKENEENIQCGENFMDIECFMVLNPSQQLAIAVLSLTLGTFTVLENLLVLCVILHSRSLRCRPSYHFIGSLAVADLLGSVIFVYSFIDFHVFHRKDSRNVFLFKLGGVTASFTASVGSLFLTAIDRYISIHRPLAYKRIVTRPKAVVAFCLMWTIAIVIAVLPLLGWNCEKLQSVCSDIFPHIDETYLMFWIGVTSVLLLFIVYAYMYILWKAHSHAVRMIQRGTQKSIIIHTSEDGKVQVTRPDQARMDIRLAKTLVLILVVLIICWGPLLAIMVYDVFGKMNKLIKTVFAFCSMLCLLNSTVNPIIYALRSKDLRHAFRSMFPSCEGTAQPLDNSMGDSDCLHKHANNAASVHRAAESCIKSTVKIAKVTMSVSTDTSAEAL

As a reminder, the IC50 is the concentration that inhibits the measured activity by half. Regarding `CCOC(=O)c1ccc(NC(=O)Nc2cccc(C(C)=O)c2)cc1` [Compound 512, ethyl 4-({[(3-acetylphenyl)amino]carbonyl}amino)benzoate], under setting [1], the IC50 was below 2000 nM.
Still for that read-out and setting: then `CCCOc1ccc(NC(=O)Nc2ccccc2OC(F)F)cc1` [Compound 534, 1-[2-(difluoromethoxy)phenyl]-3-(4-propoxyphenyl)urea], with below 2000 nM.
As to `CCCOc1ccc(NC(=O)Nc2ccc(Cl)cc2)cc1` [Compound 245, N-(4-chlorophenyl)-N′-(4-propoxyphenyl)urea], the IC50 under setting [2] is below 2000 nM.
`O=C(Nc1ccc(OC(F)F)cc1)Nc1ccc([N+](=O)[O-])cc1` [Compound 569, 1-[4-(difluoromethoxy)phenyl]-3-(4-nitrophenyl)urea]: the IC50 under setting [1] was below 2000 nM.
As to `CC(=O)c1cccc(NC(=O)Nc2ccc(OC(F)F)cc2)c1` [Compound 12, N-(3-acetylphenyl)-N′-[4-(difluoromethoxy)phenyl]urea], the concentration for half-maximal inhibition (IC50) under setting [3] is below 2000 nM.
On to `O=C(Nc1ccc([N+](=O)[O-])cc1)Nc1cccc(OC(F)F)c1` [Compound 566, 1-[3-(difluoromethoxy)phenyl]-3-(4-nitrophenyl)urea], for which the IC50 under setting [1] was below 2000 nM.
`CN(CCc1cccc(NC(=O)Nc2cccc(OC(F)F)c2)c1)S(C)(=O)=O` [Compound 785, N-(2-{3-[({[3-(difluoromethoxy)phenyl]amino}carbonyl)amino]phenyl}ethyl)-N-methylmethane-sulfonamide]: the half-maximal inhibitory concentration (IC50) under setting [1] is below 2000 nM.
The same measure, in the same setting: the result for `CCCc1ccc(NC(=O)Nc2ccc(Cl)cc2)cc1` [Compound 336, 1-(4-chlorophenyl)-3-(4-propylphenyl)urea] reads below 2000 nM; that for `CCOc1ccc(NC(=O)Nc2ccc(OCC#N)cc2)cc1` [Compound 590, 1-[4-(cyanomethoxy)phenyl]-3-(4-ethoxyphenyl)urea], below 2000 nM.
For the compound `Cc1ccc(NC(=O)Nc2cc3ccccc3c(Br)n2)cc1` [Compound 170, N-(1-bromoisoquinolin-3-yl)-N′-(4-methylphenyl)urea], the concentration for half-maximal inhibition (IC50) under setting [2] is below 2000 nM.
Consider `Cc1ccc(NC(=O)Nc2cccc(OC(C)C)c2)cc1C` [Compound 687, 1-(3,4-dimethylphenyl)-3-(3-isopropoxyphenyl)urea], for which the half-maximal inhibitory concentration (IC50) under setting [1] was below 2000 nM.
On the same count and under the same terms, the result for `CC(=O)c1ccc(NC(=O)Nc2ccc(F)c(F)c2)cc1` [Compound 452, 1-(4-acetylphenyl)-3-(3,4-difluorophenyl)urea] reads below 2000 nM.
On to `CC(=O)c1cccc(NC(=O)Nc2cccc(OC(F)F)c2)c1` [Compound 285, N-(3-acetylphenyl)-N′-[3-(difluoromethoxy)phenyl]urea], for which the half-inhibitory concentration (IC50) under setting [2] was below 2000 nM.
On the same count and under the same terms, the result for `COc1cc(NC(=O)Nc2ccc(OC(F)F)cc2)ncn1` [Compound 79, N-[4-(difluorornethoxy)phenyl]-N′-(6-methoxypyrimidin-4-yl)urea] reads below 2000 nM.
With `N#CCc1ccc(NC(=O)Nc2cccc(Cl)c2)cc1` [Compound 484, 1-(3-chlorophenyl)-3-[4-(cyanomethyl)phenyl]urea], the IC50 under setting [1] is below 2000 nM.
Still for that read-out and setting: the result for `CCOc1ccc(NC(=O)Nc2cc(C)cc(C)c2)cc1` [Compound 704, 1-(3,5-dimethylphenyl)-3-(4-ethoxyphenyl)urea] reads below 2000 nM.
As for `Cc1cccc(NC(=O)Nc2cccc(OC(C)C)c2)c1` [Compound 156, N-(3-isopropoxyphenyl)-N′-(3-methylphenyl)urea], under setting [2], the IC50 is below 2000 nM.
Take `COc1ccc(NC(=O)Nc2ccc(OC(F)F)cc2)cc1` [Compound 530, 1-[4-(difluoromethoxy)phenyl]-3-(4-methoxyphenyl)urea]: the IC50 under setting [1] was below 2000 nM.
Consider `CCc1ccc(NC(=O)Nc2cccc(C#N)c2)cc1` [Compound 55, N-(3-cyanophenyl)-N′-(4-ethylphenyl)urea], for which the IC50 under setting [3] was below 2000 nM.
Regarding `CCc1ccc(NC(=O)Nc2ccc(C)c(F)c2)cc1` [Compound 439, 1-(4-ethylphenyl)-3-(3-fluoro-4-methylphenyl)urea], the IC50 under setting [1] was below 2000 nM.
On to `O=C(Nc1ccc(OC(F)F)cc1)Nc1cccc(-c2ccccc2)c1` [Compound 98, N-biphenyl-3-yl-N′-[4-(difluoromethoxy)phenyl]urea], for which the IC50 under setting [2] was below 2000 nM.
Turning to `NC(=O)CN1CCN(S(=O)(=O)c2ccc(NC(=O)Nc3cccc(OC(F)F)c3)cc2)CC1` [Compound 793, 2-[4-({4-[({[3-(difluoromethoxy)phenyl]amino}carbonyl)amino]phenyl}sulfonyl)-1-piperazinyl] acetamide], under setting [1], the IC50 was below 2000 nM.
Take `O=C(Nc1ccc(OC(F)F)cc1)Nc1ccccn1` [Compound 631, 1-[4-(difluoromethoxy)phenyl]-3-pyridin-2-ylurea]: under setting [1], the IC50 was below 2000 nM.
Same read-out and setting: the result for `CCOc1cccc(NC(=O)Nc2ccc(F)cc2)c1` [Compound 356, 1-(3-ethoxyphenyl)-3-(4-fluorophenyl)urea] reads below 2000 nM.
Consider `O=C(Nc1ccc(OC(F)F)cc1)Nc1ccc2[nH]ncc2c1` [Compound 133], for which, under setting [2], the IC50 is below 2000 nM.
Consider `CC(=O)c1cccc(NC(=O)Nc2ccc(CC#N)cc2)c1` [Compound 504, 1-(3-acetylphenyl)-3-[4-(cyanomethyl)phenyl]urea], for which the IC50 under setting [1] is below 2000 nM.
On the same count and under the same terms, then `COc1ccc(NC(=O)Nc2ccc(Cl)cc2)cc1` [Compound 383, 1-(4-chlorophenyl)-3-(4-methoxyphenyl)urea], with below 2000 nM.
With `CC(C)Oc1ccc(NC(=O)Nc2ccc(F)cc2)cc1` [Compound 216, N-(4-fluorophenyl)-N′-(4-isopropoxyphenyl)urea], under setting [2], the IC50 is below 2000 nM.
Consider `CCOC(=O)c1ccc(NC(=O)Nc2cccc(CCO)c2)cc1` [Compound 751, ethyl 4-[({[3-(2-hydroxyethyl)phenyl]amino}carbonyl)amino] benzoate], for which the IC50 under setting [1] was below 2000 nM.
On to `COc1ccc(NC(=O)Nc2cccc(C#N)c2)cc1` [Compound 259, N-(3-cyanophenyl)-N′-(4-methoxyphenyl)urea], for which the IC50 under setting [2] was below 2000 nM.
In the case of `CCc1cccc(NC(=O)Nc2ccc(C)c(F)c2)c1` [Compound 438, 1-(3-ethylphenyl)-3-(3-fluoro-4-methylphenyl)urea], the IC50 under setting [1] was below 2000 nM.
`CCc1ccc(NC(=O)Nc2cccc(F)c2)cc1` [Compound 58, N-(4-ethylphenyl)-N′-(3-fluorophenyl)urea]: under setting [3], the IC50 is below 2000 nM.
Regarding `Cc1cc(C)cc(NC(=O)Nc2ccc(OC(F)F)cc2)c1` [Compound 89, N-[4-(difluoromethoxy)phenyl]-N′-(3,5-dimethylphenyl)urea], the half-inhibitory concentration (IC50) under setting [2] is below 2000 nM.
For `Cc1ccc(NC(=O)Nc2cccc(OC(F)F)c2)cc1F` [Compound 696, 1-[3-(difluoromethoxy)phenyl]-3-(3-fluoro-4-methylphenyl)urea], the concentration for half-maximal inhibition (IC50) under setting [1] was below 2000 nM.
Still for that read-out and setting: the result for `CC(C)c1ccc(NC(=O)Nc2ccc(C#N)cc2)cc1` [Compound 345, 1-(4-cyanophenyl)-3-(4-isopropylphenyl)urea] reads below 2000 nM; that for `COc1cccc(NC(=O)Nc2ccc(CC#N)cc2)c1` [Compound 585, 1-[4-(cyanomethyl)phenyl]-3-(3-methoxyphenyl)urea], below 2000 nM; that for `COc1ccc(NC(=O)Nc2ccc(C(C)C)cc2)cc1` [Compound 522, 1-(4-isopropylphenyl)-3-(4-methoxyphenyl)urea], below 2000 nM.
Regarding `CCCc1ccc(NC(=O)Nc2cccc(CC)c2)cc1` [Compound 183, N-(3-ethylphenyl)-N′-(4-propylphenyl)urea], under setting [2], the IC50 was below 2000 nM.
Turning to `CCOC(=O)c1ccc(NC(=O)Nc2ccc(OC(F)F)cc2)cc1` [Compound 583, ethyl 4-[({[4-(difluoromethoxy)phenyl]amino}carbonyl)amino]benzoate], the IC50 under setting [1] was below 2000 nM.
With `COc1ccc(NC(=O)Nc2ccc([N+](=O)[O-])cc2)cc1` [Compound 557, 1-(4-methoxyphenyl)-3-(4-nitrophenyl)urea], under setting [1], the concentration for half-maximal inhibition (IC50) is below 2000 nM.
The same measure, in the same setting: the result for `Cc1cc(NC(=O)Nc2ccc(OC(C)C)cc2)ccc1F` [Compound 693, 1-(4-fluoro-3-methylphenyl)-3-(4-isopropoxyphenyl)urea] reads below 2000 nM; that for `CC(C)Oc1cccc(NC(=O)Nc2ccc(F)c(F)c2)c1` [Compound 690, 1-(3,4-difluorophenyl)-3-(3-isopropoxyphenyl)urea], below 2000 nM.
With `CCCc1ccc(NC(=O)Nc2ccc(C(C)=O)cc2)cc1` [Compound 200, N-(4-acetylphenyl)-N′-(4-propylphenyl)urea], the IC50 under setting [2] was below 2000 nM.
In the case of `CCc1cccc(NC(=O)Nc2cccc(OC(F)F)c2)c1` [Compound 406, 1-[3-(difluoromethoxy)phenyl]-3-(3-ethylphenyl)urea], the IC50 under setting [1] is below 2000 nM.
Still for that read-out and setting: the result for `CCOC(=O)c1cccc(NC(=O)Nc2ccc(F)c(C)c2)c1` [Compound 767, ethyl 3-({[(4-fluoro-3-methylphenyl)amino]carbonyl}amino)benzoate] reads below 2000 nM.
For the compound `CCCc1ccc(NC(=O)Nc2ccc(C(=O)OCC)cc2)cc1` [Compound 653, ethyl 4-({[(4-propylphenyl)amino]carbonyl}amino)benzoate], under setting [1], the half-inhibitory concentration (IC50) was below 2000 nM.
Consider `CCOc1ccc(NC(=O)Nc2ccc(C)c(F)c2)cc1` [Compound 616, 1-(4-ethoxyphenyl)-3-(3-fluoro-4-methylphenyl)urea], for which, under setting [1], the half-inhibitory concentration (IC50) is below 2000 nM.
As for `CCc1ccc(NC(=O)Nc2ccc3ncccc3c2)cc1` [Compound 128, N-(4-ethylphenyl)-N′-quinolin-6-ylurea], under setting [2], the half-inhibitory concentration (IC50) is below 2000 nM.
Regarding `O=C(Nc1ccc(OC(F)F)cc1)Nc1cccc(O)c1` [Compound 17, N-[4-(difluoromethoxy)phenyl]-N′-(3-hydroxyphenyl)urea], the 50% inhibitory concentration (IC50) under setting [3] is below 2000 nM.
On to `COCc1ccc(NC(=O)Nc2ccc(C)c(C)c2)cc1` [Compound 684, 1-(3,4-dimethylphenyl)-3-[4-(methoxymethyl)phenyl]urea], for which, under setting [1], the 50% inhibitory concentration (IC50) was below 2000 nM.
